Experimental findings from US20220016146A1, “METHOD OF TREATING AGE-RELATED MACULAR DEGENERATION” (ZHUHAI QiWEl BIO-TECHNOLOGY LTD., priority 2018, published 2022) are described below.

Data set [1] has as its system Bacillus megaterium. It counts as in vivo, monkey. The method, then:
The inventors collected both AH and vitreous humor (VH) specimens from AMD patients and were able to detect B. megaterium DNA in both uncultured and cultured samples. The inventors further examined whether subretinal inoculation of AH and VH cultures which had B. megaterium, as well as the cultured single species of B. megaterium led to AMD like pathology in macaque. Briefly, about 20 CFU of bacteria (in 20 μl PBS) from AH, VH, and B. megaterium cultures were injected subretinally and PBS was used as a control. The fundus examination of macaque eye was performed before (Day 0) and after bacterial inoculation on Day 1, Day 3, Day 35 as well as Day 47. The PBS injection left only visible scar on the retina, while all bacterial inoculations led to drusenoid lesions on retinal tissues. Drusen-like nodules were also visible under the RPE layer. Fluorescence in situ hybridization results also located B. megaterium in drusenoid but not in the normal tissues post inoculation. An elevation in the expression of C5A, CFH, CASPASE1, and NLRP3 proteins was also detected in the B. megaterium infected drusenoid lesion and para-lesion tissues as compared to the uninfected normal retina in macaque.
Next, Bacillus megaterium subretinal inoculation model was used to test whether antibiotics might be able to change the bacteria-induced drusenoid pathology in monkey retinal tissues.

Data set [2] relates to Bacillus megaterium. In words: Antibiotic sensitivity testing in petri dishes (MIC method). It counts as cell-based. The conditions noted are these: FIG. 1; for sensitivity of Bacillus megaterium to antimicrobial agent / control of growth in vitro: 1*10^7 bacteria per culture, 37° C., 24 h. The method, then: The bacterial culture medium (HuanKai Microbial, Guangzhou, China) containing peptone 5 g, beef extract 3 g, NaCl 5 g, agar 15 g, and MnSO4 5 mg in 1 L ddH2O (pH=7.2) was prepared in conical flask (Drtech, Guangzhou, China) and was sterilized in the autoclave (HIRAYAMA, HEV-50, Japan) at 121° C. for 30 min. Antibiotics (ampicillin, vancomycin, neomycin, metronidazole, and tetracycline, purchased from Sigma, USA) at various concentrations were added into cooled medium. Bacillus megaterium (total 1*10^7 per culture) was cultured in the incubator (HettCube 200, Germany) at 37° C. for 24 h.
To test whether antibiotics can control the growth of Bacillus megaterium in vitro and in vivo, an antibiotic sensitivity screening test in petri dishes was carried out. The sensitivity of Bacillus megaterium to several major antimicrobial agents including Ampicillin, vancomycin, neomycin, metronidazole, and tetracycline were examined using the minimum inhibitory concentration (MIC) method.

In the case of neomycin, in the data set with Bacillus megaterium [1] (intraocular administration in monkey (data not shown)), the “ocular complications after intraocular administration” value was “significant ocular complications including ophthalmatrophia”. The “sensitivity of Bacillus megaterium to antimicrobial agent / control of growth in vitro” value in the data set with Bacillus megaterium [2] is on record as “most sensitive”.

In the case of `CN[C@H](CC(C)C)C(=O)N[C@H]1C(=O)N[C@@H](CC(N)=O)C(=O)N[C@H]2C(=O)N[C@H]3C(=O)N[C@H](C(=O)N[C@H](C(=O)O)c4cc(O)cc(O)c4-c4cc3ccc4O)[C@H](O)c3ccc(c(Cl)c3)Oc3cc2cc(c3O[C@@H]2O[C@H](CO)[C@@H](O)[C@H](O)[C@H]2O[C@H]2C[C@](C)(N)[C@H](O)[C@H](C)O2)Oc2ccc(cc2Cl)[C@H]1O` [vancomycin], the “size of drusenoid lesion in retinal tissue” value in the data set on Bacillus megaterium [1] (intravitreous 0.5 mg, one injection on Day 2 post bacterial inoculation, monkey, FIG. 2) is given as “reduction in the size of drusenoid lesion”. In the data set on Bacillus megaterium [2], the “sensitivity of Bacillus megaterium to antimicrobial agent / control of growth in vitro” value is on record as “able to inhibit the growth”.

For `Cc1ncc([N+](=O)[O-])n1CCO` [metronidazole], the “fold less effective in controlling the growth of Bacillus megaterium” value with Bacillus megaterium [2] (compared with neomycin) came to 10000 fold.
